According to the supplement of paper PMC10307832:

Assays:
Assay in all cases: relative viability (nuclei count vs DMSO), 5 days (fraction); higher = more cells survive
Dovitinib + Linsitinib = compound: CN1CCN(c2ccc3nc(-c4c(N)c5c(F)cccc5[nH]c4=O)[nH]c3c2)CC1 [Dovitinib] + C[C@]1(O)C[C@@H](c2nc(-c3ccc4ccc(-c5ccccc5)nc4c3)c3c(N)nccn32)C1 [Linsitinib] (partner 1 µM)
In short: (§1)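 Lung cancer cell lines, seeded in 1536-well plates, were treated the following day by pin tool with a single drug or with five library-drug doses (not always all listed) in √10 steps on top of a fixed anchor-drug dose. Cells were fixed and nuclei stained in one step after 5 days, and nuclei were counted. Relative viability is the nuclei count for treated wells divided by that for vehicle wells, reported as medians of duplicate plates.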

Dovitinib + Pemetrexed = compound: CN1CCN(c2ccc3nc(-c4c(N)c5c(F)cccc5[nH]c4=O)[nH]c3c2)CC1 [Dovitinib] + Nc1nc2[nH]cc(CCc3ccc(C(=O)N[C@@H](CCC(=O)O)C(=O)O)cc3)c2c(=O)[nH]1 [Pemetrexed] (partner 0.2 µM)
In short: as §1

Dovitinib + Vorinostat = compound: CN1CCN(c2ccc3nc(-c4c(N)c5c(F)cccc5[nH]c4=O)[nH]c3c2)CC1 [Dovitinib] + O=C(CCCCCCC(=O)Nc1ccccc1)NO [Vorinostat] (partner 1 µM)
In short: as §1

Dovitinib + Olaparib = compound: CN1CCN(c2ccc3nc(-c4c(N)c5c(F)cccc5[nH]c4=O)[nH]c3c2)CC1 [Dovitinib] + O=C(c1cc(Cc2n[nH]c(=O)c3ccccc23)ccc1F)N1CCN(C(=O)C2CC2)CC1 [Olaparib] (partner 8 µM)
In short: as §1

Cell Line | relative viability (Dovitinib + Linsitinib; first compound 0.02 µM) | relative viability (Dovitinib + Linsitinib; first compound 0.06325 µM) | relative viability (Dovitinib + Linsitinib; first compound 0.6325 µM) | relative viability (Dovitinib + Linsitinib; first compound 2 µM) | relative viability (Dovitinib + Pemetrexed; first compound 0.02 µM) | relative viability (Dovitinib + Pemetrexed; first compound 0.06325 µM) | relative viability (Dovitinib + Pemetrexed; first compound 0.2 µM) | relative viability (Dovitinib + Pemetrexed; first compound 0.6325 µM) | relative viability (Dovitinib + Pemetrexed; first compound 2 µM) | relative viability (Dovitinib + Vorinostat; first compound 0.02 µM) | relative viability (Dovitinib + Vorinostat; first compound 0.06325 µM) | relative viability (Dovitinib + Vorinostat; first compound 0.2 µM) | relative viability (Dovitinib + Vorinostat; first compound 0.6325 µM) | relative viability (Dovitinib + Vorinostat; first compound 2 µM) | relative viability (Dovitinib + Olaparib; first compound 0.02 µM) | relative viability (Dovitinib + Olaparib; first compound 0.06325 µM) | relative viability (Dovitinib + Olaparib; first compound 0.2 µM) | relative viability (Dovitinib + Olaparib; first compound 0.6325 µM) | relative viability (Dovitinib + Olaparib; first compound 2 µM) | relative viability (Dovitinib + Linsitinib; first compound 0.2 µM)
201T | 0.988 | 0.944 | 0.945 | 0.995 | 0.387 | 0.392 | 0.366 | 0.34 | 0.298 | 0.862 | 0.957 | 0.908 | 0.947 | 0.949 | 0.803 | 0.842 | 0.809 | 0.865 | 0.815 | 
A-427 | 1.05 | 1.07 | 1.09 | 1.08 | 0.907 | 0.988 | 1.04 | 0.967 | 1.06 | 0.83 | 0.845 | 0.895 | 0.941 | 0.991 | 0.711 | 0.641 | 0.773 | 0.797 | 0.822 | 1.14
ABC-1 | 0.848 | 0.865 | 1.02 | 0.618 |  |  |  |  |  | 1.14 | 1.12 | 1.07 | 1.18 | 1.18 | 0.628 | 0.664 | 0.871 | 1.09 | 0.944 | 0.842
BEN | 0.874 | 0.873 | 0.922 | 0.898 | 0.713 | 0.812 | 0.633 | 0.836 | 0.697 | 0.551 | 0.542 | 0.578 | 0.598 | 0.57 | 1.11 | 1.09 | 1.08 | 1.1 | 1.05 | 1.07
CAL-12T | 0.839 | 0.894 | 0.784 | 0.82 | 1.11 | 1.16 | 1.21 | 1.24 | 1.17 | 0.754 | 0.73 | 0.926 | 0.829 | 0.764 | 0.69 | 0.434 | 0.733 | 0.61 | 0.713 | 0.756
COR-L23 | 0.876 | 1.05 | 0.896 | 1.04 | 0.194 | 0.211 | 0.2 | 0.208 | 0.212 | 0.431 | 0.505 | 0.551 | 0.379 | 0.462 | 0.296 | 0.383 | 0.379 | 0.353 | 0.342 | 0.943
Calu-6 | 0.947 | 0.955 | 0.93 | 0.887 |  |  |  |  |  |  |  |  |  |  | 0.572 | 0.578 | 0.553 | 0.571 | 0.809 | 0.935
ChaGo-K-1 |  |  |  |  | 0.263 | 0.25 | 0.251 | 0.258 | 0.26 | 0.739 | 0.814 | 0.758 | 0.766 | 0.706 | 0.398 | 0.461 | 0.397 | 0.395 | 0.366 | 
EBC-1 | 0.855 | 0.861 | 0.884 | 0.912 |  |  |  |  |  |  |  |  |  |  | 0.723 | 0.69 | 0.664 | 0.712 | 0.677 | 0.85
IA-LM | 0.602 | 0.544 | 0.614 | 0.547 |  |  |  |  |  | 0.962 | 0.883 | 1.13 | 0.973 | 0.897 | 0.723 | 0.812 | 0.916 | 0.795 | 0.845 | 0.627
NCI-H727 | 0.271 | 0.325 | 0.298 | 0.408 |  |  |  |  |  | 1.19 | 1.12 | 1.25 | 1.39 | 1.25 | 0.584 | 0.72 | 0.719 | 0.679 | 0.674 | 0.314
NCI-H1299 | 0.913 | 0.954 | 0.951 | 0.976 |  |  |  |  |  |  |  |  |  |  | 0.927 | 1.01 | 0.982 | 0.946 | 1.02 | 0.959
NCI-H1563 | 1.28 | 1.17 | 1.21 | 1.2 | 0.692 | 0.922 | 0.933 | 0.913 | 0.829 |  |  |  |  |  |  |  |  |  |  | 1.14
NCI-H1648 |  |  |  |  | 0.521 | 0.729 | 0.628 | 0.804 | 0.631 | 0.402 | 0.422 | 0.425 | 0.361 | 0.516 | 0.506 | 0.815 | 0.932 | 0.667 | 0.77 | 
NCI-H1650 |  |  |  |  | 0.404 | 0.347 | 0.395 | 0.339 | 0.354 | 0.569 | 0.432 | 0.785 | 0.703 | 0.554 | 0.595 | 0.703 | 0.823 | 0.804 | 0.733 | 
NCI-H1703 | 0.853 | 0.868 | 0.533 | 0.403 |  |  |  |  |  |  |  |  |  |  | 0.399 | 0.502 | 0.325 | 0.329 | 0.24 | 0.671
NCI-H1792 | 0.621 | 0.44 | 0.598 | 0.522 | 0.909 | 0.631 | 0.672 | 0.972 | 0.827 |  |  |  |  |  | 0.582 | 0.41 | 0.404 | 0.614 | 0.548 | 0.602
NCI-H2170 |  |  |  |  | 0.267 | 0.33 | 0.267 | 0.265 | 0.281 | 0.752 | 0.783 | 0.819 | 0.839 | 0.783 | 0.617 | 0.607 | 0.606 | 0.605 | 0.542 | 
NCI-H2342 |  |  |  |  | 0.787 | 0.74 | 0.74 | 0.835 | 0.777 | 0.738 | 0.71 | 0.781 | 0.717 | 0.735 | 0.486 | 0.415 | 0.439 | 0.486 | 0.427 | 
